# pIC50: −log10 of the molar value.
# Biological target: T1, human LPA1 (Homo sapiens, UniProt Q92633)
# T1 construct: expressed in transfected cells; host or cells: Chinese hamster ovary (CHO) cells
# Experiment: LPA1 functional antagonist assay (calcium flux)
# Type: cell-based
# Conditions: CHO cells overexpressing human LPA1; calcium flux induced by 10 nM LPA; read-out: hLPA1 IC50
# Method: The effectiveness of compounds of the present invention as LPA1 inhibitors can be determined in an LPA1 functional antagonist assay as follows:
# The cells were then equilibrated to room temperature for 30 minutes before the assay. […] IC50 values were determined by fitting data to a 4-parameter logistic equation (GraphPad Prism, San Diego Calif.).
# T1 sequence (Q92633 whole entry): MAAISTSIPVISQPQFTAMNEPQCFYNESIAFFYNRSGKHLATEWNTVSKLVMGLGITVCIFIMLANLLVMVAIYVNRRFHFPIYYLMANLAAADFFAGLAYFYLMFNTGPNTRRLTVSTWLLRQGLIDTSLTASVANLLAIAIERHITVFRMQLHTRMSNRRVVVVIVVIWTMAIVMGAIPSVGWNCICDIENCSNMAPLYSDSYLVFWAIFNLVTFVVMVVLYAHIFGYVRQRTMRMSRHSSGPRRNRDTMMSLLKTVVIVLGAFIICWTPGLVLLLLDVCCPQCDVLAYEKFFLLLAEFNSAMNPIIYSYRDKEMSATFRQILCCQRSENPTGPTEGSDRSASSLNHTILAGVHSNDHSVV
row,pIC50,SMILES
1,6.39,"Cc1nc(-c2nnn(C)c2CNC(=O)OCCCF)ccc1O[C@H]1CCC[C@H](C(=O)O)C1 [Example 55, (1S,3S)-3-((6-(5-((((3-fluoropropoxy)carbonyl)amino)methyl)-1-methyl-1H-1,2,3-triazol-4-yl)-2-methylpyridin-3-yl)oxy)cyclohexane-1-carboxylic acid]"
2,7.48,"Cn1nnc(-c2ccc(O[C@H]3CCC[C@H](C(=O)O)C3)c(C(F)F)n2)c1CNC(=O)OCc1ccccc1 [Example 98, (1S,3S)-3-((6-(5-((((benzyloxy)carbonyl)amino)methyl)-1-methyl-1H-1,2,3-triazol-4-yl)-2-(difluoro-methyl)pyridin-3-yl)oxy)cyclohexane-1-carboxylic acid]"
3,7.34,"CCC1(COC(=O)NCc2c(-c3nc(C)c(O[C@H]4CCC[C@H](C(=O)O)C4)cc3F)nnn2C)CC1 [Example 216, (1S,3S)-3-((6-(5-(((((1-ethylcyclo-propyl)methoxy)carbonyl)amino)methyl)-1-methyl-1H-1,2,3-triazol-4-yl)-5-fluoro-2-methylpyridin-3-yl)oxy)cyclohexane-1-carboxylic acid]"
4,6.22,"Cc1nc(-c2nnn(C)c2CNC(=O)OCC2(F)CC2)ccc1O[C@H]1CCC[C@H](C(=O)O)C1 [Example 49, (1S,3S)-3-((6-(5-(((((1-fluorocyclopropyl)methoxy)carbonyl)amino)methyl)-1-methyl-1H-1,2,3-triazol-4-yl)-2-methylpyridin-3-yl)oxy)cyclohexane-1-carboxylic acid]"
5,6.66,"Cc1nc(-c2nnn(C)c2CN(C)S(=O)(=O)N(C)Cc2ccccc2)ccc1O[C@H]1CCC[C@H](C(=O)O)C1 [Example 228, (1S,3S)-3-((6-(5-(((N-benzyl-N-methyl-sulfamoyl)(methyl)amino)methyl)-1-methyl-1H-1,2,3-triazol-4-yl)-2-methylpyridin-3-yl)oxy)cyclohexane-1-carboxylic acid]"
6,7.00,"Cc1nc(-c2nnn(C)c2CNC(=O)NCCC(C)C)ccc1O[C@H]1CCC[C@H](C(=O)O)C1 [Example 122, (1S,3S)-3-((6-(5-((3-isopentyl-ureido)methyl)-1-methyl-1H-1,2,3-triazol-4-yl)-2-methylpyridin-3-yl)oxy)cyclohexane-1-carboxylic acid]"
7,7.32,"Cc1nc(-c2nnn(C)c2CNC(=O)OCC2CC(F)C2)ccc1O[C@H]1CCC[C@H](C(=O)O)C1 (mixture of isomers) [Example 48, (1S,3S)-3-((6-(5-(((((3-fluorocyclobutyl)methoxy)carbonyl)amino)methyl)-1-methyl-1H-1,2,3-triazol-4-yl)-2-methylpyridin-3-yl)oxy)cyclohexane-1-carboxylic acid]"
8,6.85,"Cc1nc(-c2nnn(C)c2CNC(=O)NC(C)c2ccccc2)ccc1O[C@H]1CCC[C@H](C(=O)O)C1 (mixture of isomers) [Example 129, (1S,3S)-3-((2-methyl-6-(1-methyl-5-((3-(1-phenylethyl)ureido)methyl)-1H-1,2,3-triazol-4-yl)pyridin-3-yl)oxy)cyclo-hexane-1-carboxylic acid]"
9,5.96,"Cc1nc(-c2nnn(C)c2CNC(=O)N(C)C(C)(C)C)ccc1O[C@H]1CCC[C@H](C(=O)O)C1 [Example 133, (1S,3S)-3-((6-(5-((3-(tert-butyl)-3-methylureido)methyl)-1-methyl-1H-1,2,3-triazol-4-yl)-2-methylpyridin-3-yl)oxy)cyclohexane-1-carboxylic acid]"
10,5.99,Cc1nc(-c2nnn(C)c2CCNC(=O)CCC(C)C)ccc1O[C@H]1CCC[C@H](C(=O)O)C1 [Example 240]
11,6.07,"Cn1nnc(-c2ccc(O[C@H]3CCC[C@H](C(=O)O)C3)cn2)c1CNC(=O)OCC1CC(F)C1 (mixture of isomers) [Example 47, (1S,3S)-3-((6-(5-(((((3-fluorocyclobutyl)methoxy)carbonyl)amino)methyl)-1-methyl-1H-1,2,3-triazol-4-yl)pyridin-3-yl)oxy)cyclohexane-1-carboxylic acid]"
12,7.70,"Cc1nc(-c2nnn(C)c2NC(=O)OCCC(C)C)ccc1O[C@H]1CCC[C@H](C(=O)O)C1 [Example 77, (1S,3S)-3-((6-(5-(((isopentyloxy)carbonyl)amino)-1-methyl-1H-1,2,3-triazol-4-yl)-2-methylpyridin-3-yl)oxy)cyclohexane-1-carboxylic acid]"
13,6.95,"Cc1nc(-c2nnn(C)c2CNC(=O)N(C)CCC2CC2)ccc1O[C@H]1CCC[C@H](C(=O)O)C1 [Example 114, (1S,3S)-3-((6-(5-((3-(2-cyclopropyl-ethyl)-3-methylureido)methyl)-1-methyl-1H-1,2,3-triazol-4-yl)-2-methylpyridin-3-yl)oxy)cyclohexane-1-carboxylic acid]"
14,5.87,"Cc1nc(-c2nnn(C)c2CCNC(=O)OCC(C)(C)C)ccc1O[C@H]1CCC[C@H](C(=O)O)C1 [Example 104, (1S,3S)-3-((2-methyl-6-(1-methyl-5-(2-(((neopentyloxy)carbonyl)amino)ethyl)-1H-1,2,3-triazol-4-yl)pyridin-3-yl)oxy)cyclohexane-1-carboxylic acid]"
15,8.15,"Cc1nc(-c2nnn(C)c2CNC(=O)OCc2cc(F)ccc2F)ccc1O[C@H]1CCC[C@H](C(=O)O)C1 [Example 17, (1S,3S)-3-((6-(5-(((((2,5-difluorobenzyl)oxy)carbonyl)amino)methyl)-1-methyl-1H-1,2,3-triazol-4-yl)-2-methylpyridin-3-yl)oxy)cyclohexane-1-carboxylic acid]"
16,7.03,"CCc1nc(-c2nnn(C)c2CNC(=O)OCC(C)(C)C)ccc1O[C@H]1CCC[C@H](C(=O)O)C1 [Example 45, (1S,3S)-3-((2-ethyl-6-(1-methyl-5-((((neopentyloxy)carbonyl)amino)methyl)-1H-1,2,3-triazol-4-yl)pyridin-3-yl)oxy)cyclohexane-1-carboxylic acid]"
17,7.09,"Cc1nc(-c2nnn(C)c2CNC(=O)N(C)CC2CCC2)ccc1O[C@H]1CCC[C@H](C(=O)O)C1 [Example 108, (1S,3S)-3-((6-(5-((3-(cyclobutylmethyl)-3-methylureido)methyl)-1-methyl-1H-1,2,3-triazol-4-yl)-2-methylpyridin-3-yl)oxy)cyclohexanecarboxylic acid]"
18,7.59,"Cc1nc(-c2nnn(C)c2NC(=O)O[C@H](C)c2ccccc2)ccc1O[C@H]1CCC[C@H](C(=O)O)C1 [Example 72, (1S,3S)-3-((2-methyl-6-(1-methyl-5-((((R)-1-phenylethoxy)carbonyl)amino)-1H-1,2,3-triazol-4-yl)pyridin-3-yl)oxy)cyclohexane-1-carboxylic acid]"
19,7.72,"Cc1nc(-c2nnn(C)c2NC(=O)OCC2CCCCC2)ccc1O[C@H]1CCC[C@H](C(=O)O)C1 [Example 76, (1S,3S)-3-((6-(5-(((cyclohexyl-methoxy)carbonyl)amino)-1-methyl-1H-1,2,3-triazol-4-yl)-2-methyl-pyridin-3-yl)oxy)cyclohexane-1-carboxylic acid]"

row,SMILES,pIC50
1,"CC(C)COC(=O)Nc1c(-c2ccc(O[C@H]3CCC[C@H](C(=O)O)C3)cn2)nnn1C [Example 87, (1S,3S)-3-((6-(5-((isobutoxy-carbonyl)amino)-1-methyl-1H-1,2,3-triazol-4-yl)pyridin-3-yl)oxy)cyclohexane-1-carboxylic acid]",6.66
2,"Cc1nc(-c2nnn(C)c2CNC(=O)OCCC(C)(C)C)ccc1O[C@H]1CCC[C@H](C(=O)O)C1 [Example 37, (1S,3S)-3-((6-(5-((((3,3-dimethylbutoxy)carbonyl)amino)methyl)-1-methyl-1H-1,2,3-triazol-4-yl)-2-methylpyridin-3-yl)oxy)cyclohexanecarboxylic acid]",7.92

# Same assay, conditions: human LPA1 functional antagonist assay; read-out: hLPA1 IC50
row,SMILES,pIC50
1,"Cc1nc(-c2nnn(C)c2CNC(=O)O[C@@H](C)C(F)(F)F)ccc1O[C@H]1CCC[C@H](C(=O)O)C1 [Example 174, (1S,3S)-3-((2-methyl-6-(1-methyl-5-((((((S)-1,1,1-trifluoropropan-2-yl)oxy)carbonyl)amino)methyl)-1H-1,2,3-triazol-4-yl)pyridin-3-yl)oxy)cyclohexane-1-carboxylic acid]",7.00
2,"Cc1nc(-c2nnn(C)c2CNC(=O)OCCCCF)ccc1O[C@H]1CCC[C@H](C(=O)O)C1 [Example 162, (1S,3S)-3-((6-(5-((((4-fluorobutoxy)carbonyl)amino)methyl)-1-methyl-1H-1,2,3-triazol-4-yl)-2-methyl-pyridin-3-yl)oxy)cyclohexane-1-carboxylic acid]",7.22
3,"Cc1nc(-c2nnn(C)c2CNC(=O)OC2CC3(CC3)C2)ccc1O[C@H]1CCC[C@H](C(=O)O)C1 [Example 201, (1S,3S)-3-((2-methyl-6-(1-methyl-5-((((spiro[2.3]hexan-5-yloxy)carbonyl)amino)methyl)-1H-1,2,3-triazol-4-yl)pyridin-3-yl)oxy)cyclohexane-1-carboxylic acid]",7.38
4,"Cc1nc(-c2nnn(C)c2CNC(=O)OC2CC(F)(F)C2)ccc1O[C@H]1CCC[C@H](C(=O)O)C1 [Example 178, (1S,3S)-3-((6-(5-((((3,3-difluoro-cyclobutoxy)carbonyl)amino)methyl)-1-methyl-1H-1,2,3-triazol-4-yl)-2-methylpyridin-3-yl)oxy)cyclo-hexane-1-carboxylic acid]",6.99
5,"Cc1nc(-c2nnn(C)c2CNC(=O)OCC(C)CC(F)F)ccc1O[C@H]1CCC[C@H](C(=O)O)C1 (stereo partly drawn) [Example 196, (1S,3S)-3-((6-(5-((((4,4-difluoro-2-methylbutoxy)carbonyl)amino)methyl)-1-methyl-1H-1,2,3-triazol-4-yl)-2-methylpyridin-3-yl)oxy)cyclo-hexane-1-carboxylic acid]",7.08
6,"Cc1nc(-c2nnn(C)c2CNC(=O)OCC2CC(F)(F)C2)ccc1O[C@H]1CCC[C@H](C(=O)O)C1 [Example 182, (1S,3S)-3-((6-(5-(((((3,3-difluoro-cyclobutyl)methoxy)carbonyl)amino)methyl)-1-methyl-1H-1,2,3-triazol-4-yl)-2-methylpyridin-3-yl)oxy)cyclohexane-1-carboxylic acid]",7.07

# Reference: patent US11697646B2, “Triazole N-linked carbamoyl cyclohexyl acids as LPA antagonists” (BRISTOL-MYERS SQUIBB COMPANY, priority 2017, dated 2023)
